Laboratory results published in patent publication US12358948B2, “Neurotensinergic agonists and methods of using same preventing or treating pain” (priority 2019, dated 2025).
pIC50: −log10 of the molar value. Read-outs that look alike come from different tables or passages of the source. *1 amine or outer side, *2 acyl side, *3 side chain or, on linkers, in order; H or OH if unused. Where a SMILES comes first, the peptide text is derived from it. Bridges are numbered along the chain shown (N, C = ends). [ ]: non-standard residue; d: D form. ξ: configuration not given here. ξαMeNle(6-ylidene) = CC(CCCC=[*:3])(N[*:1])C(=O)[*:2]; Phe(4-Br) = N[C@@H](Cc1ccc(Br)cc1)C(=O)O; Ala(cPent) = N[C@@H](CC1CCCC1)C(=O)O; Bta = N[C@@H](Cc1csc2ccccc12)C(=O)O; tBuAla = CC(C)(C)C[C@H](N)C(=O)O; AllylGly = C=CC[C@H](N)C(=O)O; Nle = CCCC[C@H](N)C(=O)O; Dap = NC[C@H](N)C(=O)O

Experiments:
hNTS2 receptor = target: T1, hNTS2 receptor (Homo sapiens, UniProt O95665); assay: Competitive radioligand binding assay on the hNTS2 receptor; conditions: for pIC50: IC50 NTS2, displacement of 125I-[Tyr3]-NT; for pIC50 / IC50: membranes of 1321N1 cells expressing hNTS2; for Selectivity: ratio IC50 for NTS1 : IC50 for NTS2; for IC50: displacement of 125I-[Tyr3]-NT, read-out: IC50 NTS2 (converted)
T1 construct: membranes prepared from them
T1 sequence (O95665 whole entry): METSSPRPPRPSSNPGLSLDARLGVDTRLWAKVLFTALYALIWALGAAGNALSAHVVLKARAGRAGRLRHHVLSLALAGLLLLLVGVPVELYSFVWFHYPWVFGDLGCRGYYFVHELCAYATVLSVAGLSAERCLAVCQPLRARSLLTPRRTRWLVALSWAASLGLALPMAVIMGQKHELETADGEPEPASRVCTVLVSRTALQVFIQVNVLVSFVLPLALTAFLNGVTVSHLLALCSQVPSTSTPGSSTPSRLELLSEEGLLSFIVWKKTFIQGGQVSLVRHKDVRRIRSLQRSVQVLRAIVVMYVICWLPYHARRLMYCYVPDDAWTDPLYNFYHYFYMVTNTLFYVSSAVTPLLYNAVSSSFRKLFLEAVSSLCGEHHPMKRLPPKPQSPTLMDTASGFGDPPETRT
Outline: (§1)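 IC50 values came from one-site competition curves against ¹²⁵I-[Tyr³]-NT after 60 min at 25 °C (pH 7.5 Tris, 0.2% BSA), with analogues at 10⁻¹¹–10⁻⁴ M and nonspecific binding set by 10⁻⁵ M NT(8-13). hNTS1 used 15 µg CHO-K1 membranes with […] tracer; hNTS2 used 50 µg 1321N1 membranes with […] tracer.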

hNTS1 receptor = target: T2, hNTS1 receptor (Homo sapiens, UniProt P30989); assay: Competitive radioligand binding assay on the hNTS1 receptor; conditions: membranes of CHO-K1 cells expressing hNTS1
T2 construct: membranes prepared from them
T2 sequence (P30989 whole entry): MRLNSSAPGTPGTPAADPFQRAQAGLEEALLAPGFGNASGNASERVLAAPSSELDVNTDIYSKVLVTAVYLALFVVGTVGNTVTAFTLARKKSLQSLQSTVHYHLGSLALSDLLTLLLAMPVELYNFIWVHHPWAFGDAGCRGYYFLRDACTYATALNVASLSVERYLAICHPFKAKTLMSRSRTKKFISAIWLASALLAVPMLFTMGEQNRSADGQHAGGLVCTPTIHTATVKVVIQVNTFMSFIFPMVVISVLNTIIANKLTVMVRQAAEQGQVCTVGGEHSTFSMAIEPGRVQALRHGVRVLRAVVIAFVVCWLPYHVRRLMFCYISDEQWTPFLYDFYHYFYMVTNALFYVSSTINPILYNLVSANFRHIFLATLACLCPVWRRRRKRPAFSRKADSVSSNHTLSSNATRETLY
Outline: as §1

Sprague-Dawley rats = assay: Tail-flick test (acute thermal pain), intrathecal injection; assay type: in vivo, rat; conditions: 61 nmol/kg i.t.
Experimental: Rats were housed two per cage on Aspen shavings in a quiet room and kept on a 12 h light/dark cycle and allowed ad libitum access to food and water. The experimental procedures in this study were approved by the Animal Care Committee of Université de Sherbrooke and were in accordance with policies and directives of the Canadian Council on Animal Care.
Tail-flick test: The tail flick test was used as outcome measures heat-induced pain in animals and as indicators of a compound's analgesic efficacy.
Acute pain was assessed using the Tail flick test (Tail Flick Analgesia meterV2.00, Colombus Instruments, Columbus, Ohio, USA). Tail flick test measures sensitivity to a high-intensity light beam focused on the rat tail. The tail flick apparatus was set at a light intensity of 6 and a cutoff of 10 seconds. The latency to flick the tail out of the path of the light beam corresponds to the measure of pain sensitivity or analgesia.
Before testing, animals were individually acclimatized to manipulations and behavioral apparatus 5 min/day for three consecutive days. On the test day, latencies baseline measures were taken before drug injection to provide a mean baseline. The compounds were diluted in 0.9% saline at the desired dose. The effects of the compound or saline on thermal nociception were assessed every 10 min for up to 60 min following i.t. administration.
Moreover, tail flick latencies were converted into the percent maximal possible effect (% MPE) at the time of maximal peak of analgesia. % MPE were calculated according to the following formula: % MPE=[(Test latency)−(Saline latency)]/[(Cutoff)−(Saline latency)]×100. Data are expressed as mean±SEM of 5-8 animals for each dose.
Then, ED50 values were determined using the dose-response stimulation log(agonist) vs response (four parameters).
Data are expressed as mean±standard errors of the mean (SEM). All graphs and statistical analysis were performed using GraphPad Prism™ 7 (GraphPad software, La Jolla, CA, USA). […] A two-way ANOVA followed by Tukey's multiple comparisons test was used to determine the significant differences in changes in body temperature between different concentrations of compounds and saline (FIG. 9). The % MPE for the tail-flick test and the areas under the curve for the formalin test were analyzed using a one-way ANOVA followed by a Dunnett's multiple comparisons test to compare different concentrations of compounds and saline treatment (FIGS. 2B, 4B, 7A-B and 8B-D). […] Nonlinear regression using three parameters was performed for % of ileum relaxation and IC50 value was obtained from the resulting dose-response curve (FIG. 11). A difference in response was considered significant with p-values *p<0.05, **p<0.01, ***p<0.001 and **p<0.0001.

ileum = assay: Ileum relaxation assay ex vivo; parameters: species or system rat; conditions: 10^−11 to 10^−6 M, after contraction with carbachol
Experimental: The functional ileum bioassay was carried out as described in detail elsewhere. (Van der Poorten, O., Van Den Hauwe, R., Eiselt, E., Betti, C., Guillemyn, K., Chung, N. N., Hall, F., Bihel, F., Schiller, P. W., Tourwé, D., Sarret, P., Gendron, L, . . . Ballet, S. (2017). X-Space Screening of Dermorphin-Based Tetrapeptides through Use of Constrained Arylazepinone and Quinolinone Scaffolds. ACS medicinal chemistry letters, 8(11), 1177-1182) Briefly, rats were euthanized, and 2 cm ileum segments were dissected out before removal of extraneous fat and connective tissue.
The ileum was then mounted under 0.5-g tension in a 10 mL organ bath containing warmed (37° C.) and oxygenated (95% O2, 5% CO2) Krebs solution (6.9 g/L NaCl, 0.145 g/L MgSO4, 2.1 g/L NaHCO3, 0.35 g/L KCl, 0.165 g/L KH2PO4, 1.98 g/L dextrose and 0.28 g/L CaCl2)). […] Contractions of the muscle were recorded via an isometric force transducer (159901A, Radnoti, Monrovia, CA, USA). […]
Each concentration of the compounds tested were followed by 2×15-min washout periods in Krebs solution to allow full relaxation. Dose-response curves were obtained with NT (8-13) (10^−11 to 10^−6) as standard for each ileum and for compound 34(10^−11 to 10^−5) and IC50 values were determined. […]
Data are expressed as mean±standard errors of the mean (SEM). […]

[1] = IC50 NTS1, displacement of 125I-[Tyr3]-NT
[2] = displacement of 125I-[Tyr3]-NT, read-out: IC50 NTS1

SMILES | Selectivity (hNTS2 receptor) | IC50 (hNTS2 receptor) [µM] | pIC50 (hNTS1 receptor; [2]) | pIC50 (hNTS2 receptor) | pIC50 (hNTS1 receptor; [1]) | latency of the tail-flick reflex compared to baseline (Sprague-Dawley rats) | Acute pain (tail beam) (i.t.) (Sprague-Dawley rats; rat) | pIC50 (ileum)
NCCCC[C@@H]1NC(=O)[C@H](CCCCN)NC(=O)[C@@H](N)CC=CC[C@@H](C(=O)N[C@@H](Cc2ccc(Br)cc2)C(=O)N[C@@H](CC2CCCC2)C(=O)O)NC1=O [compound 127, c[G(All)KKG(All)]F(4-bromo)A(cyclopentyl)] (H-[AllylGly]KK[AllylGly][Phe(4-Br)][Ala(cPent)]-OH; staple 1-4) | 49505 | – | – | 8.70 | < 4.00 | sustainably increased latency | – | –
CC(C)C[C@H](NC(=O)[C@H](Cc1ccc(O)cc1)NC(=O)[C@@H]1CC=CCCC(=O)N[C@@H](CCCCN)C(=O)N[C@@H](CCCCN)C(=O)N1)C(=O)O [compound 60, c[K(Pentenoyl)KG(All)]YL] | >2127.7 | 0.047 | < 4.00 | – | – | – | No effect (61 nmol/kg) | –
CC[C@H](C)[C@H](NC(=O)[C@H](Cc1ccc(O)cc1)NC(=O)[C@@H]1CCCN1C(=O)[C@H](CCCNC(=N)N)NC(=O)[C@@H](N)CCCNC(=N)N)C(=O)N[C@@H](CC(C)C)C(=O)O [NT(8-13), Neurotensin 8-13, reference compound] | – | – | – | – | – | – | – | 8.41
CC1(C(=O)N[C@@H](Cc2ccc(O)cc2)C(=O)N[C@@H](CC2CCCC2)C(=O)O)CCCC=CC[C@H](N)C(=O)N[C@@H](CCCCN)C(=O)N[C@@H](CCCCN)C(=O)N1 (stereo partly drawn) [compound 128, c[G(All)KKG((S)-alpha-Me-(4-pentenyl))]YA(cyclopentyl)] (H-[AllylGly]KK[ξαMeNle(6-ylidene)]Y[Ala(cPent)]-OH; staple 1-4) | 12788 | – | – | 8.11 | < 4.00 | sustainably increased latency | – | –
CC1(C(=O)N[C@@H](Cc2ccc(Br)cc2)C(=O)N[C@@H](CC2CCCC2)C(=O)O)CCCC=CC[C@H](N)C(=O)N[C@@H](CCCCN)C(=O)N[C@@H](CCCCN)C(=O)N1 (stereo partly drawn) [compound 133, c[G(All)KKG(alpha-Me-(4-pentenyl))]F(4-bromo)A (cyclopentyl)] (H-[AllylGly]KK[ξαMeNle(6-ylidene)][Phe(4-Br)][Ala(cPent)]-OH; staple 1-4) | 33333 | – | – | 8.52 | < 4.00 | sustainably increased latency | – | –
CC(C)C[C@H](NC(=O)[C@H](Cc1ccc(Br)cc1)NC(=O)[C@@H]1CC=CC[C@H](N)C(=O)N[C@@H](CCCCN)C(=O)N[C@@H](CCCCN)C(=O)N1)C(=O)O [compound 116, c[G(All)KKG(All)]F(4-bromo)L] (H-[AllylGly]KK[AllylGly][Phe(4-Br)]L-OH; staple 1-4) | >6443 | – | – | 7.81 | < 4.00 | sustainably increased latency | – | –
CC(C)(C)C[C@H](NC(=O)[C@H](Cc1ccc(O)cc1)NC(=O)[C@@H]1CC=CC[C@H](N)C(=O)N[C@@H](CCCCN)C(=O)N[C@@H](CCCCN)C(=O)N1)C(=O)O [compound 49, c[G(All)KKG(All)]YNpg] (H-[AllylGly]KK[AllylGly]Y[tBuAla]-OH; staple 1-4) | >2252 | 0.0444 | < 4.00 | – | – | – | – | –
CC(C)C[C@H](NC(=O)[C@H](Cc1ccc(O)cc1)NC(=O)[C@@H]1CC=CC[C@H](N)C(=O)N[C@@H](CCCCN)C(=O)N[C@@H](Cc2c[nH]cn2)C(=O)N1)C(=O)O [compound 55, c[G(All)KHG(All)]YL] (H-[AllylGly]KH[AllylGly]YL-OH; staple 1-4) | >175 | 0.57 | < 4.00 | – | – | – | – | –

Continued, in another order:

Selectivity (hNTS2 receptor) | IC50 (hNTS2 receptor) [µM] | pIC50 (hNTS1 receptor; [2]) | SMILES | pIC50 (hNTS2 receptor) | pIC50 (hNTS1 receptor; [1]) | latency of the tail-flick reflex compared to baseline (Sprague-Dawley rats) | Acute pain (tail beam) (i.t.) (Sprague-Dawley rats; rat) | pIC50 (ileum)
10428 | 0.0096 | < 4.00 | CC1(C(=O)N[C@@H](Cc2ccc(Br)cc2)C(=O)N[C@@H](CC2CCCC2)C(=O)O)CCCC=CCCC(=O)N[C@@H](CCCCN)C(=O)N[C@@H](CCCCN)C(=O)N1 (stereo partly drawn) [compound 137, c[K(Pentenoyl)KG(alpha-Me-(4-pentenyl))]F(4-bromo)A (cyclopentyl)] | – | – | – | – | –
>12.2 | 8.18 | < 4.00 | CC(C)C[C@H](NC(=O)[C@H](Cc1ccc(O)cc1)NC(=O)[C@@H]1CCC(=O)NC[C@H](N)C(=O)N[C@@H](CCCCN)C(=O)N[C@@H](CCCCN)C(=O)N1)C(=O)O [compound 98, c[DapKKE]YL] (H-[Dap]KKEYL-OH; lactam 1-4) | – | – | – | – | –
172 | 0.582 | < 4.00 | CC(C)C[C@H](NC(=O)[C@H](C)NC(=O)[C@@H]1CC=CC[C@H](N)C(=O)N[C@@H](CCCCN)C(=O)N[C@@H](CCCCN)C(=O)N1)C(=O)O [compound 138, c[G(All)KKG(All)]AL] (H-[AllylGly]KK[AllylGly]AL-OH; staple 1-4) | – | – | – | – | –
>93 | 1.07 | < 4.00 | CCCC[C@@H]1NC(=O)[C@@H](N)CC=CC[C@@H](C(=O)N[C@@H](Cc2ccc(O)cc2)C(=O)N[C@@H](CC(C)C)C(=O)O)NC(=O)[C@H](CCCCN)NC1=O [compound 85, c[G(All)NleKG(All)]YL] (H-[AllylGly][Nle]K[AllylGly]YL-OH; staple 1-4) | – | – | – | – | –
979 | 0.102 | < 4.00 | CC(C)C[C@H](NC(=O)[C@H](Cc1csc2ccccc12)NC(=O)[C@@H]1CC=CC[C@H](N)C(=O)N[C@@H](CCCCN)C(=O)N[C@@H](CCCCN)C(=O)N1)C(=O)O [compound 168, c[G(All)KKG(All)]A(3-benzothienyl)L] (H-[AllylGly]KK[AllylGly][Bta]L-OH; staple 1-4) | – | – | – | – | –
